The values below come from patent EP0171342A1, “Substituted 2-(1-amino-akylidenyl)1,3-indane diones, process for their preparation and their therapeutical use” (priority 1984, dated 1986).

Structures are written as SMILES. In brackets after ≈: the same amount, converted by molar mass. Where two headings read alike, the source gives them in different places.

Series [1] concerns rat soumis à une surcharge hydrique. The experiment in a line: Diuretic activity in rats given a water overload, oral. In kind it is in vivo. The conditions noted are these: rat, water overload, oral, 20 mg/kg; read-out: facteur multipliant l'excrétion urinaire du sodium. The protocol:
L'activité diurétique a été déterminée sur plusieurs modèles expérimentaux. Chez le rat soumis à une surcharge hydrique, administrés par voie orale à la dose de 20 mg/kg, le COR3760, le COR3789, le COR3792, le COR4002, le COR4003, le COR4009, le COR4010, le COR4012 et le COR4014 multiplient l'excrétion urinaire du sodium par respectivement un facteur 2,9 - 3,1 - 5,9 - 2,6 - 7,2 - 3,5 - 3,8 - 2,9 - 2,4. Administrés à la dose de 10 mg/kg, dans les mêmes conditions, les COR3760, COR3789, COR3792, COR4003 et COR4010 multiplient l'excrétion sodique par respectivement 2,3 - 2,9 - 2,8 - 2,4 et 2,5. La spironolactone multiplie quant à elle l'excrétion sodique d'un facteur 3,6 à la dose de 20 mg/kg. Administré à la dose de 5 mg/kg dans les mêmes conditions, le COR3792 multiplie l'excrétion sodique par 3,3. Administré par voie orale chez le rat ou la souris soumis à une surcharge saline, le COR3760 augmente l'excrétion urinaire volumétrique mesurée à la sixième heure de respectivement 49, 119 et 134% chez la souris et 28, 84 et 116% chez le rat après administration de 10, 20, et 40 mg/kg. Le COR3760 a été administré par voie orale au rat soumis à une surcharge hydrique et l'excrétion urinaire volumétrique, le sodium et le potassium excrétés ont été mesurés sur une période de 6 heures; ces paramètres ont varié de respectivement +17%, +102%, +165% à 10 mg/kg, +19%, +147%, +180% à 20 mg/kg et +36%, +415% et +239% à 40 mg/kg; le rapport Na/K passe de 0,56 chez les animaux témoins à 0,4 à 10 mg/kg, 0,49 à 20 mg/kg et 0, 8 à 40 mg/ kg. Au cours d'une seconde expérimentation, le COR3760 a entrainé des variations de +19%, +157%, +70% à 40 mg/kg, +19%, +319%, +90% à 60 mg/kg et +29%, +472% et +77% à 80 mg/kg; le rapport Na/K passe de 0,59 chez les animaux témoins à 0,88 à 40, 1,15 à 60 et 1,88 à 80 mg/kg.

For series [2], the system named is oreillette gauche de cobaye. Put plainly: Calcium antagonist activity: electrically stimulated guinea pig left atrium. The conditions noted are these: 150 beats/min, low-calcium (0,6 mM) Tyrode solution; read-out: concentration qui inhibe de 50% l'augmentation de la force de contraction induite par l'addition de 0,6 mM de calcium. The protocol:
L'activité anticalcique a été déterminée in vitro sur deux modèles expérimentaux.
Sur oreillette gauche de cobaye stimulée électriquement à 150 battements/mn dans une solution de Tyrode pauvre en calcium (0,6 mM), les COR3789, COR3792, COR4009, COR4010 et COR4011 employés respectivement à 25, 100, 50, 10 et 25 microg/ml inhibent de 50% l'augmentation de la force de contraction induite par l'addition de 0,6 mM de calcium.

Series [3] relates to rat vigile spontanément hypertendu. Put plainly: Antihypertensive activity in conscious spontaneously hypertensive rats (indirect tail pressure). In kind it is in vivo. The following applies: SHR, oral, 100 mg/kg. The protocol: L'activité antihypertensive a été appréciée chez le rat vigile spontanément hypertendu. La pression artérielle est mesurée de façon indirecte sur la queue 2, 4, 6 heures après l'administration par voie orale du produit à tester. Pour le COR4009, administré à la dose de 100 mg/kg, la réduction de pression est respectivement de 8, 13, 13% à ces échéances.

Series [4] deals with souris. Put plainly: Anticonvulsant activity: maximal electroshock convulsions in mice. The conditions noted are these: mouse, oral, 100 mg/kg, one hour after administration. In kind it is in vivo. The source says: L'activité anticonvulsivante est appréciée dans le test de la prévention des convulsions induites par des électrochocs d'intensité maximale.
Series [5] deals with souris. The experiment in a line: Acute toxicity (mortality, LD50) in mice. It counts as in vivo. The conditions noted are these: mouse.
For series [6], the system named is rat Wistar soumis à une surcharge saline. Put plainly: Diuretic activity in selected Wistar rats given a saline overload (modified Wiebelhaus test). It counts as in vivo. The protocol:
L'activité diurétique des produits selon l'invention a été également déterminée chez le rat Wistar soumis à une surcharge saline selon une modification du test décrit par Wiebelhaus et coll., Fed. Proc., 1960, 19, 364, en procédant à une sélection des animaux. A la dose de 20 mg/kg, les COR4003, COR4008, COR4009, COR4010, COR4011, COR4012, COR4014, COR4016, COR4021, COR4025 augmentent l'excrétion urinaire volumétrique mesurée au bout de 6 heures de respectivement 56, 54, 65, 95, 73, 54, 33, 40, 99 et 92 %. L'excrétion urinaire du sodium augmente de respectivement 56, 24, 42, 59, 43, 33, 29, 43, 31, 83, 26, 99, 40 % toujours à cette dose pour les COR4003, COR4008, COR4009, COR4010, COR4011, COR4012, COR4014, COR4016, COR4017, COR4021, COR4023, COR4025 et COR4026. Le rapport Na/K demeure la plupart du temps inchangé. Testé dans les mêmes conditions le furosémide, administré à la dose de 20 mg/kg entraine 63% d'augmentation de l'excrétion urinaire volumétrique et 53% d'augmentation de l'excrétion urinaire du sodium.

Series [7] deals with souris. Put plainly: Anticonvulsant activity: bicuculline-induced convulsions in mice. It counts as in vivo. The following applies: mouse, i.p., 100 mg/kg. The protocol: L'activité anticonvulsivante est également déterminée dans le test des inhibitions des convulsions induites par la bicuculline. Des souris reçoivent par voie intrapéritonéale le produit à tester, puis 30 mn et 5 heures plus tard, deux injections séparées de 0,5 mg de bicuculline. […] Les résultats de ce test sont le reflet d'une activité gabaergique directe.

The target in series [8] is oreillettes droites de cobaye (Cavia porcellus, UniProt P47747). Put plainly: Anti-H2 activity: histamine-induced chronotropic effect on unstimulated guinea pig right atria.
For series [9], the system named is souris. The experiment in a line: Antidepressant activity: inhibition of reserpine-induced ptosis in mice. In kind it is in vivo. The following applies: mouse, oral 50 mg/kg 90 min before reserpine 5 mg/kg i.p.; index 0 (maximum ptosis) to 6 (no ptosis). The protocol:
L'activité antidépressive a été déterminée dans le test de potentialisation de la toxicité de la yohimbine et dans le test de l'inhibition du ptosis induit par la réserpine.
On injecte par voie sous cutanée à des souris, lh avant l'administration par voie orale du produit à tester, une dose non léthale de yohimbine soit 15 mg/kg. Le COR3760 administré à la dose de 100 mg/kg entraine 80% de mortalité dans ces conditions. Des souris reçoivent par voie orale le produit à tester 90 mn avant l'injection par voie intrapéritonéale de 5 mg/kg de réserpine solubilisée. On cote le ptosis selon un index allant de 0 à 6, la cote 0 correspondant à un ptosis maximum et la cote 6 à l'absence de ptosis. Les COR3760 et COR4011 conduisent dans les conditions de l'expérience à un ptosis coté à 4 pour une dose de respectivement 200 et 50 mg/kg.

The test system of series [10] is strips de veines mésentériques porte de rats normotendus. The experiment in a line: Calcium antagonist activity: spontaneous contractions of rat portal mesenteric vein strips. The conditions noted are these: 10 microg/ml.
The mark [11] stands for this setting: 6 h, read-out: augmentation de l'excrétion urinaire volumétrique mesurée au bout de 6 heures.
Where [12] appears, read: read-out: augmentation de l'excrétion urinaire du sodium.

Sequence of oreillettes droites de cobaye (P47747 whole entry): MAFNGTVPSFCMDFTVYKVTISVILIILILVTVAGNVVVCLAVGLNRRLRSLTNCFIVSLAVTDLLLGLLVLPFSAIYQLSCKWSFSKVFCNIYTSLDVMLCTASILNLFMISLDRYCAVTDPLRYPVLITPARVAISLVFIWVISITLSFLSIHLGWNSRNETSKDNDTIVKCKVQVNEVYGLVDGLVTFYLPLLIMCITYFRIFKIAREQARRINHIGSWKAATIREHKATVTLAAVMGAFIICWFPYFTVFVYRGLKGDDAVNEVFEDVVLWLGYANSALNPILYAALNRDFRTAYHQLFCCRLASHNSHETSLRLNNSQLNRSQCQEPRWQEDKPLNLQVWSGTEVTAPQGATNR

In the case of `COCCNC(C)=C1C(=O)c2ccccc2C1=O` [COR4009, ((Méthoxy-2 éthyl) amino-1 éthylidényl)-2 indanedione-1,3], the response vs control in vivo at 20 mg/kg in series [1] stood at 350%. In series [2], the IC50 was determined as 50 µg/mL (≈ 204 µM). The réduction de pression in [3] (2 hours after administration) turned out to be 8%; in series [3] (4 hours after administration) it was 13%; in series [3] (6 hours after administration) it was 13%. For the same compound, the “prévention des convulsions induites par des électrochocs d'intensité maximale” value in the series on souris [4] is “on n'observe plus de convulsions”. For the same compound, the mortalité result was “aucune mortalité” with souris [5] (intraperitoneal, 200 mg/kg) and “aucune mortalité” in the series on souris [5] (oral, 300 mg/kg). In addition, the change in vivo at 20 mg/kg amounted to 65% in series [6] (setting [11]) and 42% in series [6] (setting [12]). In addition, the “inhibition des convulsions induites par la bicuculline” value is “inhibe les convulsions induites par la première injection” in the series on souris [7] (first bicuculline injection (30 min later)) and “sans inhiber celles induites par la deuxième” in the series on souris [7] (second bicuculline injection (5 hours later)).

Consider `CC(NCC1CC1)=C1C(=O)c2ccccc2C1=O` [COR4011, (Cyclopropylméthylamino-1 éthylidényl)-2 indanedione-1,3], for which the “effet chronotrope négatif intrinsèque” value in [8] (at the concentration inhibiting the histamine effect by 50 % (COR4003 100, COR4011 50 microg/ml)) is reported as “ne présentant pas d'effet chronotrope négatif intrinsèque”. Besides, the IC50 in [8] (read-out: concentration qui inhibe de 50 % cet effet chronotrope, chronotropic effect induced by 5 microg/ml histamine) is 207 µM; in series [2], 25 µg/mL (≈ 104 µM). The “ptosis coté” value in the series with souris [9] is on record as 4. Moreover, the mortalité entry is on record as “aucune mortalité” in the series on souris [5] (intraperitoneal, 200 mg/kg) and “aucune mortalité” with souris [5] (oral, 300 mg/kg). In addition, the “inhibition de l'augmentation, induite par le calcium, des contractions spontanées” value in [10] is reported as “inhibent l'augmentation”. Moreover, the change in vivo at 20 mg/kg in [6] (setting [11]) stood at 73%; in series [6] (setting [12]), 43%.

Take `CCCC(C)(COC(N)=O)COC(N)=O` [méprobamate, reference compound]: in the series on souris [4], the “prévention des convulsions induites par des électrochocs d'intensité maximale” value is recorded as “on n'observe plus de convulsions”.
